The results in this text go back to patent US9101638B2, “Boronic acid derivatives and therapeutic uses thereof” (Rempex Pharmaceuticals, Inc., priority 2013, dated 2015).

In one assay the test system is KP1004 (KPC-2). In words: Potentiation of biapenem, strain KP1004. As to conditions: strain KP1004 KPC-2, biapenem alone. The class given is cell-based. As for the experimental part:
(§1) Biapenem was present in the test medium at 1 μg/mL. […] Table 3 summarizes the BLI potency of biapenem potentiation (MPC@1) for two strains overexpressing class A (KPC) and class D (OXA-48) carbapenemases. Biapenem MIC for each strain is also shown.

A further assay deals with KP1086 (OXA-48). Kind of assay: Potentiation of biapenem, strain KP1086. The class given is cell-based. As to conditions: strain KP1086 OXA-48, biapenem alone. The method, then: as §1
The next assay deals with PAM1032/KPC-2. In words: Biapenem potentiation in PAM1032/KPC-2 (MexAB-OprM overexpressed). It is filed as cell-based, Pseudomonas aeruginosa. As to conditions: Pseudomonas aeruginosa. As for the experimental part: (§2) Efflux of BLIs from Pseudomonas aeruginosa by the MexAB-OprM efflux pump was also evaluated. […] Due to expression of KPC-2 both strains became resistant to biapenem. […] Potency of BLIs to potentiate biapenem in these strains was determined. […] The ratio of MPC64 values for each BLI in PAM1032/KPC-2 (efflux proficient) and PAM1154/KPC-2 (efflux deficient) was determined to generate the Efflux Index (EI).

The subject of the next assay is PAM1154/KPC-2. In words: Biapenem potentiation in PAM1154/KPC-2 (MexAB-OprM lacking). The class given is cell-based, Pseudomonas aeruginosa. As to conditions: Pseudomonas aeruginosa. As for the experimental part:
as §2

The target in the next assay is T1, Trypsin (Bos taurus, UniProt P00760).
T1 construct: purchased Calbiochem 6502
T1 sequence (P00760 24-246): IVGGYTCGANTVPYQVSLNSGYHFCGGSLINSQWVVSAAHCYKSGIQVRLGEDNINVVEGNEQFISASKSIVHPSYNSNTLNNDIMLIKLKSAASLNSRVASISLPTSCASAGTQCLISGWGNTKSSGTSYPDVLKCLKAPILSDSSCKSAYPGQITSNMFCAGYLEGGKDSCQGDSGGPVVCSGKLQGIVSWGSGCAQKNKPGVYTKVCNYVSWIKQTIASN
Kind of assay: Serine protease inhibition: trypsin. It is filed as biochemical, mammalian. As for the experimental part: (§3) The effect of selected BLIs on the enzymatic activity of some common mammalian serine proteases was evaluated.
(§4) 50 μl of the diluted enzyme was mixed with 50 μl of inhibitor at various concentrations and 50 μl of corresponding buffer (Table 7). Reaction mixtures were incubated for 10 min at 37° C. Subsequently, 50 μl of corresponding substrate (Table 7) was added and absorbance or fluorescence was monitored for 30 min on SpectraMax M2 plate reader (Molecular Devices). 4-(2-Aminoethyl)benzenesulfonyl fluoride hydrochloride (AEBSF) and leupeptin were used as positive controls. Rates of reaction were calculated and presented relative to “no treatment” control.

In the next assay the target is T2, Chymotrypsin (Bos taurus, UniProt P00766).
T2 construct: purchased Calbiochem 230832
Kind of assay: Serine protease inhibition: chymotrypsin. It is filed as biochemical, mammalian. The method, then:
as §3, §4

Another assay deals with T3, Thrombin (Homo sapiens, UniProt P00734).
T3 construct: Thrombin; MPBio; 19491880; purchased MPBio 19491880
Kind of assay: Serine protease inhibition: thrombin. As to conditions: Table 8A, positive controls, numeric; read-out: IC50 Thrombin. It is filed as biochemical, mammalian. As for the experimental part:
as §3, §4

Another assay deals with T4, Plasmin (Homo sapiens, UniProt P00747).
T4 construct: Plasmin; MPBio; 19419890; purchased MPBio 19419890
In words: Serine protease inhibition: plasmin. The class given is biochemical, mammalian. The method, then:
as §3, §4

Another assay addresses T5, Elastase (Sus scrofa, UniProt P00772).
T5 construct: purchased Calbiochem 324682
Kind of assay: Serine protease inhibition: elastase. The class given is biochemical, mammalian. As for the experimental part:
as §3, §4

The next assay concerns the target T6, Urokinase (Homo sapiens, UniProt P00749).
T6 construct: purchased Calbiochem 672112
In words: Serine protease inhibition: urokinase. The class given is biochemical, mammalian. As to conditions: Table 8A, positive controls, numeric; read-out: IC50 Urokinase. The method, then:
as §3, §4

The next assay addresses T7, Chymase (Homo sapiens, UniProt P23946).
T7 construct: purchased Enzo Lifescience BML-SE281
T7 sequence (P23946 22-247): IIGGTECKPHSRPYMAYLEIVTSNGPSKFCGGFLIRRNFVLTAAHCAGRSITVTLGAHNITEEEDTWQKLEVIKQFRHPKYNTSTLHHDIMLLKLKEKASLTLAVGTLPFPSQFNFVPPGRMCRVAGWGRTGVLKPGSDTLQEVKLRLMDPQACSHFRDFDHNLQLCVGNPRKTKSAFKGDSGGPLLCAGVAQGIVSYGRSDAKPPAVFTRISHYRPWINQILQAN
Kind of assay: Serine protease inhibition: chymase. The class given is biochemical, mammalian. As to conditions: Table 8A, positive controls, numeric; read-out: IC50 Chymase. The method, then: as §3, §4

A further assay concerns the target T8, Neutrophil elastase (Homo sapiens, UniProt P08246).
T8 construct: purchased Calbiochem 324681
T8 sequence (P08246 30-267): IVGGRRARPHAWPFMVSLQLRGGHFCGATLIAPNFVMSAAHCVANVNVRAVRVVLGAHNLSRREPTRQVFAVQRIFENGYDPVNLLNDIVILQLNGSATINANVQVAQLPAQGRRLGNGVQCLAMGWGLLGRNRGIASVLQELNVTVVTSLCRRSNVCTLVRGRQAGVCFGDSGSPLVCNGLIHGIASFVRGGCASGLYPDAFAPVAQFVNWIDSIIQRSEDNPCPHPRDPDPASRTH
Kind of assay: Serine protease inhibition: neutrophil elastase. It is filed as biochemical, mammalian. As to conditions: Table 8B; read-out: IC50 Neutrophil elastase. The method, then: as §3, §4

The target of the next assay is T9, CathepsinA (Homo sapiens, UniProt P10619).
T9 construct: purchased R&D Systems 1049-SE
T9 sequence (P10619 29-480): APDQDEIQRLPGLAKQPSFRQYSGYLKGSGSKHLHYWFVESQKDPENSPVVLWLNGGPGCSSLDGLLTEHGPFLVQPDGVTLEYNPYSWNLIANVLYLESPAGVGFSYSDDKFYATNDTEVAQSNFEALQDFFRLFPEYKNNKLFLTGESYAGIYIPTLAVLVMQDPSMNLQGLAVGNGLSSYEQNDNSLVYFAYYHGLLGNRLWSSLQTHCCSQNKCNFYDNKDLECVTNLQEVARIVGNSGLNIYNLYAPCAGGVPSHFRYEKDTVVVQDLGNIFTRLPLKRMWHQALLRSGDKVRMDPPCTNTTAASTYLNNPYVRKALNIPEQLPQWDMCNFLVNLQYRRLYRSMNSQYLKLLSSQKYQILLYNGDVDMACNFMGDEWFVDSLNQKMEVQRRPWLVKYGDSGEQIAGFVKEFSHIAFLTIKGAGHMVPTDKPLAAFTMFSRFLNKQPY
In words: Serine protease inhibition: cathepsin A. The class given is biochemical, mammalian. In short, it runs like this: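 Enzyme + inhibitor (various concns), enzyme-specific buffer, 10 min, 37° C; add matching substrate; read absorbance/fluorescence 30 min. Rates vs no-treatment control. AEBSF, leupeptin as positive controls.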

A further assay deals with T10, HtrA2 (Homo sapiens, UniProt O43464).
T10 sequence (O43464 134-458): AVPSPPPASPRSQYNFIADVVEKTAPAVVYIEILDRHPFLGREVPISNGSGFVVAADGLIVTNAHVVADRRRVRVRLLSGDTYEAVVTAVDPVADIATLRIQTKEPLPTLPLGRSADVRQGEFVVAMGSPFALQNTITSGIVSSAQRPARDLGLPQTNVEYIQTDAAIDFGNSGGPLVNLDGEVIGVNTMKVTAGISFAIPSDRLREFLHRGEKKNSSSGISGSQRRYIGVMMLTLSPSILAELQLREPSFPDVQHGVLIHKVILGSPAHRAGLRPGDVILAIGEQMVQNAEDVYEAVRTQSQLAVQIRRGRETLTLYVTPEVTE
In words: Serine protease inhibition: HtrA2. The class given is biochemical, mammalian. As for the experimental part:
as §3, §4

In assay [1] the target is T11, Dipeptidyl peptidase 7 (DPP7) (Homo sapiens, UniProt Q9UHL4).
T11 construct: purchased R&D Systems 3438-SE
In words: Serine protease inhibition: DPP7. It is filed as biochemical, mammalian. As for the experimental part:
as §3, §4

The target in assay [2] is T12, Dipeptidyl peptidase 8 (DPP8) (Homo sapiens, UniProt Q6V1X1).
T12 construct: purchased BPS Bioscience 80080
In words: Serine protease inhibition: DPP8. It is filed as biochemical, mammalian. As for the experimental part: as §3, §4

Assay [3] addresses T13, Dipeptidyl peptidase 9 (DPP9) (Homo sapiens, UniProt Q86TI2).
T13 construct: purchased BPS Bioscience 80090
Kind of assay: Serine protease inhibition: DPP9. It is filed as biochemical, mammalian. The method, then:
as §3, §4

Another assay concerns ec308 (SHV-5). In words: Potentiation of tigemonam, strain ec308. As to conditions: strain ec308 SHV-5, tigemonam alone. It is filed as cell-based.
Another assay concerns ec302 (TEM-10). In words: Potentiation of tigemonam, strain ec302. It is filed as cell-based. As to conditions: strain ec302 TEM-10, tigemonam alone.
The next assay has as its system EC1010 (CMY-6). The class given is cell-based. As to conditions: strain EC1010 CMY-6, tigemonam alone.
The next assay has as its system KP1009 (CTX-M-15). Kind of assay: Potentiation of tigemonam, strain KP1009. As to conditions: strain KP1009 CTX-M-15, tigemonam alone.
Another assay concerns KP1010 (SHV-12). Kind of assay: Potentiation of tigemonam, strain KP1010. As to conditions: strain KP1010 SHV-12, tigemonam alone.

T4 sequence (P00747 581-810 limits assumed, species assumed): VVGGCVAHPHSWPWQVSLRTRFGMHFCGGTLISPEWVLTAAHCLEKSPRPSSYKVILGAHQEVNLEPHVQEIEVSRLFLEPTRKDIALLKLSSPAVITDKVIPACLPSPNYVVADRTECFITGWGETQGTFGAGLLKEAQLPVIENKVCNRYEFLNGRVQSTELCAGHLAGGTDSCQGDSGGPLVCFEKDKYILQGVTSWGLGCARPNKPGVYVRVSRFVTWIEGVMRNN
T4 sequence (P00747 97-580 partner limits assumed, species assumed): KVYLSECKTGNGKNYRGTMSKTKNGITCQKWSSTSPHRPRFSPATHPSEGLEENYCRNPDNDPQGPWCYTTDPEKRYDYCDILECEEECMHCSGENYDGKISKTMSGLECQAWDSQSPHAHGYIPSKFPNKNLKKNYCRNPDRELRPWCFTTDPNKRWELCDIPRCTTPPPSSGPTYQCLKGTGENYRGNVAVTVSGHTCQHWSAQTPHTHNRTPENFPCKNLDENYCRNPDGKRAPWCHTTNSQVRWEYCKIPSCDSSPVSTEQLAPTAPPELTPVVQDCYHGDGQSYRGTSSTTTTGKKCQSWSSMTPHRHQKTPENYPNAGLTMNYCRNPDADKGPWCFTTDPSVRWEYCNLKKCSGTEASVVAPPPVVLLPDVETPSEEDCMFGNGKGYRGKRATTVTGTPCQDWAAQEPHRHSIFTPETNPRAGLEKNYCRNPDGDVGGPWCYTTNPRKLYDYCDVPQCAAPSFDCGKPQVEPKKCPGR
T12 sequence (Q6V1X1 whole entry): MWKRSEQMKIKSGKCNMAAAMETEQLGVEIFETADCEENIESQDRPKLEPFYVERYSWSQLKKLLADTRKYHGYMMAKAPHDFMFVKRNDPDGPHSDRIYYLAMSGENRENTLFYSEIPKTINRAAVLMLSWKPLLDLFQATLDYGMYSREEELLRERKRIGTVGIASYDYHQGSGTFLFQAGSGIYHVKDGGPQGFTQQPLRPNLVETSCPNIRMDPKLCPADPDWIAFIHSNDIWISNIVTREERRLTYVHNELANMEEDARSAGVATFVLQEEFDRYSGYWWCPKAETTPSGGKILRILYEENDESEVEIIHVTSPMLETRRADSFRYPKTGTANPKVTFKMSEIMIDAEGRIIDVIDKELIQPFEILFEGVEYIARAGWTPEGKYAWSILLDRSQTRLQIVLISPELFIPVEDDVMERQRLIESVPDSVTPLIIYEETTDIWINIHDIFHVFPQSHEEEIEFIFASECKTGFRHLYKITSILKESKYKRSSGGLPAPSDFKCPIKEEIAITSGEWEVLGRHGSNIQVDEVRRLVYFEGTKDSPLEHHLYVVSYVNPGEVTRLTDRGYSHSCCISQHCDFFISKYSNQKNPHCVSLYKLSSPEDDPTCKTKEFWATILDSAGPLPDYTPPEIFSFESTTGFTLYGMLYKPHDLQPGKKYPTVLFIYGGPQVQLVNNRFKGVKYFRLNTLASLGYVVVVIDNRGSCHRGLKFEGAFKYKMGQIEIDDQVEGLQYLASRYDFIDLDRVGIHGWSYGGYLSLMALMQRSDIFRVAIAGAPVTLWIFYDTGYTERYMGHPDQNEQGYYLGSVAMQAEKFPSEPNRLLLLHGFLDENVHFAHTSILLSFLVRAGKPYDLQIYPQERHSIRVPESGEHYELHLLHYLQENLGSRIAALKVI
T13 sequence (Q86TI2 whole entry): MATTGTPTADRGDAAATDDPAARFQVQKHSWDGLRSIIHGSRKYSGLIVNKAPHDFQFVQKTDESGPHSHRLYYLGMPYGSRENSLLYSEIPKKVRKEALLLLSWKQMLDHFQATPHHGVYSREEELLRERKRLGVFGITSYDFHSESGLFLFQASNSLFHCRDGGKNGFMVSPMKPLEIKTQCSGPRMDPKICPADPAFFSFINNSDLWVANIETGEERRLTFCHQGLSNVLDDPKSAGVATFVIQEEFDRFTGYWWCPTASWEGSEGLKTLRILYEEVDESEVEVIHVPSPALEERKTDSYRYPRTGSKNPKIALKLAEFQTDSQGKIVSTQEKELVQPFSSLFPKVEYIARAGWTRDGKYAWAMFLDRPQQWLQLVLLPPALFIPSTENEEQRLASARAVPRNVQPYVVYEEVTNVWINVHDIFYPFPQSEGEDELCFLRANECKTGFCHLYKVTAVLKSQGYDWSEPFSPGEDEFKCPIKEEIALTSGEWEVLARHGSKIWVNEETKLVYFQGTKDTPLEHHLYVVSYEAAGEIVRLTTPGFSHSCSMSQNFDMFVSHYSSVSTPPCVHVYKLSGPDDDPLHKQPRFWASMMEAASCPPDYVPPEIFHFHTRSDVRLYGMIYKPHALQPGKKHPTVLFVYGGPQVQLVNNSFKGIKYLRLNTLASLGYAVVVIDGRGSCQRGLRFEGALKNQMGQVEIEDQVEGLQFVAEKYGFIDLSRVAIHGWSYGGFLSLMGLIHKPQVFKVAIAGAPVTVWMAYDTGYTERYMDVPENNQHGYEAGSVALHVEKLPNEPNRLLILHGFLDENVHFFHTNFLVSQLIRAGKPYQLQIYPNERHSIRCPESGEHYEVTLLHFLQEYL
T5 sequence (P00772 27-266): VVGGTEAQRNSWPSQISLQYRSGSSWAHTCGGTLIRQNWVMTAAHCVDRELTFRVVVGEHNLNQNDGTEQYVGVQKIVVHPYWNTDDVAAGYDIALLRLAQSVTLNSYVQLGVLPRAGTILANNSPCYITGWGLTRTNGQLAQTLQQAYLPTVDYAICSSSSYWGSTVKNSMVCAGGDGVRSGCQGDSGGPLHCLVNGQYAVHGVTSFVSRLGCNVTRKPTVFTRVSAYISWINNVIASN

Usually MIC stands for the smallest concentration in the dilution series that meets the test's criterion for growth inhibition. Regarding `C[C@@H](O)[C@H]1C(=O)N2C(C(=O)[O-])=C(SC3Cn4cnc[n+]4C3)[C@H](C)[C@H]12` (some centres unmarked) [Biapenem, reference compound], the minimum inhibitory concentration (MIC) in the assay with KP1004 (KPC-2) was 32 µg/mL; in the assay with KP1086 (OXA-48) it was 16 µg/mL; in the assay on PAM1032/KPC-2, 32 µg/mL; in the assay with PAM1154/KPC-2, 32 µg/mL.
The term IC50 denotes the concentration needed to halve the response being measured. As for `CC(=O)N[C@@H](CC(C)C)C(=O)N[C@@H](CC(C)C)C(=O)N[C@H](C=O)CCCNC(=N)N` [Leupeptin, leupeptin, reference compound], the half-maximal inhibitory concentration (IC50) is under 0.27 µM against Trypsin; over 200 µM against Chymotrypsin; 15 µM on Thrombin; 5 µM on Plasmin; over 200 µM against Elastase; 22 µM at Urokinase. Besides, the 50% inhibitory concentration (IC50) on Chymase is over 200 µM; at Neutrophil elastase, 15 to 500 µM; on CathepsinA, 15 to 500 µM; on HtrA2 it was over 500 µM; in assay [1] it was 15 to 500 µM; in [2], 15 to 500 µM. This compound came in with a half-inhibitory concentration (IC50) in assay [3] of 15 to 500 µM.
Turning to `CC1(C)[C@H](NC(=O)/C(=N\OCC(=O)O)c2csc(N)n2)C(=O)N1OS(=O)(=O)O` [Tigemonam, reference compound], the “Tigemonam MIC” value was over 64 µg/mL in the assay on ec308 (SHV-5); over 64 µg/mL with ec302 (TEM-10); 16 µg/mL in the assay on EC1010 (CMY-6); over 64 µg/mL in the assay on KP1005 (CTX-M-14); over 64 µg/mL in the assay with KP1009 (CTX-M-15); over 64 µg/mL in the assay with KP1010 (SHV-12).
